Laboratory results: article PMC8388771, “Cationic Peptidomimetic Amphiphiles Having a N-Aryl- or N-Naphthyl-1,2,3-Triazole Core Structure Targeting Clostridioides (Clostridium) difficile: Synthesis, Antibacterial Evaluation, and an In Vivo C. difficile Infection Model” (Antibiotics, 2021)
In brackets after ≈: the same amount, converted by molar mass. Like-named read-outs stand apart in the source and are kept apart here.

Key:
human erythrocytes = assay: Hemolysis assay, HC50 determination; assay type: cell-based
Experimental: Hemolysis assay (human erythrocytes)–HC50 determination. These were performed as described previously.

E. faecalis ATCC 29212 = assay: Primary MIC assay, E. faecalis ATCC 29212; assay type: cell-based, Enterococcus faecalis; details: Enterococcus faecalis
Experimental: (§1) The N-arytriazole and N-naphthyltriazole peptidomimetics were subjected to antimicrobial screening. […] Vancomycin, colistin, fluconazole, and tamoxifen were used as positive controls (see Table 1 for details).
(§2) Primary screening (Gram-positive bacteria). Primary MIC assays were performed as described by the Clinical and Laboratory Standards Institute for aerobic and anaerobic bacteria. MIC values for vancomycin were within acceptable QC ranges.

[1] = tested on: K. pneumoniae ATCC 700603; assay: CO-ADD MIC assay, K. pneumoniae ATCC 700603; assay type: cell-based; details: Klebsiella pneumoniae, ATCC700603, Table S1, multi-drug resistant
Source text: as §1
(§3) Secondary screening (MRSA and Gram-negative bacteria) and cytotoxicity assay–performed by the Community for Open Antimicrobial Drug Discovery (CO-ADD). Samples were provided to CO-ADD [29] for antimicrobial screening by whole cell growth inhibition assays.
(§4) Bacterial Inhibition–MIC Assay. These were performed as described previously.

C. albicans ATCC 90028 = assay: CO-ADD MIC assay, C. albicans ATCC 90028; assay type: cell-based; details: Candida albicans, ATCC90028, Table S1
Source text: as §1, §3

S. aureus NCTC 10442 = assay: Primary MIC assay, S. aureus NCTC 10442 (MRSA); assay type: cell-based; details: Staphylococcus aureus
Experimental: as §1, §2

S. pneumoniae ATCC 49619 = assay: Primary MIC assay, S. pneumoniae ATCC 49619; assay type: cell-based, Streptococcus pneumoniae; details: Streptococcus pneumoniae
Experimental: as §1, §2

E. coli ATCC 25922 [2] = assay: Primary MIC assay, E. coli ATCC 25922; assay type: cell-based; details: Escherichia coli
E. coli ATCC 25922 [3] = assay: CO-ADD MIC assay, E. coli ATCC 25922; assay type: cell-based; details: Escherichia coli, ATCC25922, Table S1
Source text: as §1, §3, §4

C. difficile 132 (RT027) = assay: Primary MIC assay, C. difficile 132 (RT027); assay type: cell-based, Clostridioides difficile; details: Clostridioides difficile, read-out: MIC C. difficile 132 (RT027)
Experimental: as §1, §2

[4] = tested on: Cryptococcus neoformans var. grubii ATCC 208821; assay: CO-ADD MIC assay, C. neoformans var. grubii ATCC 208821; assay type: cell-based; details: for MIC: Cryptococcus neoformans, ATCC208821, Table S1; for MIC C. neoformans var. grubii ATCC 208821: Table S1
Source text: as §1, §3

P. aeruginosa ATCC 27853 = assay: CO-ADD MIC assay, P. aeruginosa ATCC 27853; assay type: cell-based; details: Pseudomonas aeruginosa, ATCC27853, Table S1
Source text: as §1, §3, §4

A. baumannii ATCC 19606 = assay: CO-ADD MIC assay, A. baumannii ATCC 19606; assay type: cell-based; details: Acinetobacter baumannii, ATCC19606, Table S1
Source text: as §1, §3, §4

S. aureus ATCC 43300 = assay: CO-ADD MIC assay, S. aureus ATCC 43300 (MRSA); assay type: cell-based; details: Staphylococcus aureus, read-out: MIC S. aureus ATCC 43300
Source text: as §1, §3, §4

S. aureus ATCC 29213 = assay: Primary MIC assay, S. aureus ATCC 29213; assay type: cell-based; details: Staphylococcus aureus
Experimental: as §1, §2

[5] = Cytotoxicity (CC50) assay by CO-ADD; assay type: cell-based, human; details: human, HEK293 cells (ATCC CRL-1573); Table 1; cytotoxicity on HEK293 cells, tested at ≤32 µg/mL
Source text: as §1, §3
Cytotoxicity Assay. These were performed as described previously.

C. difficile ATCC 700057 = assay: Primary MIC assay, C. difficile ATCC 700057; assay type: cell-based, Clostridioides difficile; details: Clostridioides difficile
Experimental: as §1, §2

[6] = Table 1, lysis of human erythrocytes
[7] = Table S1, footnote says lysis of sheep erythrocytes
[8] = ATCC29212, Table 1, read-out: MIC E. faecalis ATCC 29212
[9] = Table 1, MRSA, read-out: MIC S. aureus NCTC 10442
[10] = ATCC49619, Table 1, read-out: MIC S. pneumoniae ATCC 49619
[11] = ATCC25922, Table 1, read-out: MIC E. coli ATCC 25922
[12] = ATCC29213, Table 1, read-out: MIC S. aureus ATCC 29213
[13] = ATCC700057, Table 1, read-out: MIC C. difficile ATCC 700057

Compound	MIC (E. faecalis ATCC 29212; [8]) [µg/mL]	MIC [1] [µg/mL]	MIC (C. albicans ATCC 90028) [µg/mL]	MIC (S. aureus NCTC 10442; [9]) [µg/mL]	MIC (S. pneumoniae ATCC 49619; [10]) [µg/mL]	MIC (E. coli ATCC 25922 [2]; [11]) [µg/mL]	MIC (E. coli ATCC 25922 [3]) [µg/mL]	MIC (C. difficile 132 (RT027); Table 1) [µg/mL]	MIC [4] [µg/mL]	MIC (P. aeruginosa ATCC 27853) [µg/mL]	MIC (A. baumannii ATCC 19606) [µg/mL]	MIC (S. aureus ATCC 43300; Table S1, MRSA, CO-ADD) [µg/mL]	MIC (S. aureus ATCC 29213; [12]) [µg/mL]	MIC (C. difficile ATCC 700057; [13]) [µg/mL]	MIC C. neoformans var. grubii ATCC 208821 [4] [µg/mL]	HC50 (human erythrocytes; [6]) [µg/mL]	HC50 (human erythrocytes; [7]) [µg/mL]	CC50 [5] [µg/mL]	other results
CN[C@H](CC(C)C)C(=O)N[C@H]1C(=O)N[C@@H](CC(N)=O)C(=O)N[C@H]2C(=O)N[C@H]3C(=O)N[C@H](C(=O)N[C@H](C(=O)O)c4cc(O)cc(O)c4-c4cc3ccc4O)[C@H](O)c3ccc(c(Cl)c3)Oc3cc2cc(c3O[C@@H]2O[C@H](CO)[C@@H](O)[C@H](O)[C@H]2O[C@H]2C[C@](C)(N)[C@H](O)[C@H](C)O2)Oc2ccc(cc2Cl)[C@H]1O [vanc, vancomycin, reference compound]																			MIC (E. faecalis ATCC 29212; ATCC29212, read-out: MIC E. faecalis ATCC 29212): 4 µg/mL (≈ 2.76 µM); MIC (S. aureus NCTC 10442; MRSA / NCTC 10442 / NCTC 104422, read-out: MIC S. aureus NCTC 104422): 1 µg/mL (≈ 0.69 µM); MIC (S. aureus NCTC 10442; read-out: MIC S. aureus NCTC 10442): 1 µg/mL (≈ 0.69 µM); MIC (S. pneumoniae ATCC 49619; ATCC49619, read-out: MIC S. pneumoniae ATCC 49619): 1 µg/mL (≈ 0.69 µM); MIC (E. coli ATCC 25922 [2]; ATCC25922, read-out: MIC E. coli ATCC 25922): > 16 µg/mL; MIC (C. difficile 132 (RT027)): 0.5 µg/mL (≈ 0.345 µM); MIC (S. aureus ATCC 43300): 1 µg/mL (≈ 0.69 µM); MIC (S. aureus ATCC 29213; ATCC29213, read-out: MIC S. aureus ATCC 29213): 1 µg/mL (≈ 0.69 µM); MIC (C. difficile ATCC 700057; ATCC700057, read-out: MIC C. difficile ATCC 700057): 0.5 µg/mL (≈ 0.345 µM)
CC(C)CCc1cnnn1-c1c(OCC(=O)N[C@H](CCCCN)C(=O)N[C@H](CCCNC(=N)N)Cn2cc(C3CCCCC3)nn2)ccc2ccccc12.Cl.Cl [Compound 43]	64	> 32	> 32	16	4	64	32	128	4 to 8	32	32	8	16	128	8	>32	> 32	> 32	
CC(C)CCc1cn(-c2c(OCC(=O)N[C@H](CCCCN)C(=O)N[C@H](CCCNC(=N)N)Cn3cc(CC4CCCCC4)nn3)ccc3ccccc23)nn1 [Compound 41]	8 (≈ 10.6 µM)	32 (≈ 42.3 µM)	32 (≈ 42.3 µM)	8 (≈ 10.6 µM)	16 (≈ 21.1 µM)	128 (≈ 169 µM)	32 (≈ 42.3 µM)	16 (≈ 21.1 µM)	4 to 8 (≈ 5.28 to 10.6 µM)	16 (≈ 21.1 µM)	32 (≈ 42.3 µM)	4 (≈ 5.28 µM)	8 (≈ 10.6 µM)	16 (≈ 21.1 µM)	4 (≈ 5.28 µM)	32	32	16 (≈ 21.1 µM)	HC50 (human erythrocytes; Table 2, footnote says lysis of sheep erythrocytes): 32 µg/mL; MIC (S. aureus NCTC 10442; MRSA / NCTC 10442 / NCTC 104422, Table 2, MRSA, read-out: MIC S. aureus NCTC 104422): 8 µg/mL (≈ 10.6 µM); MIC (S. aureus ATCC 43300; Table 2, MRSA): 4 µg/mL (≈ 5.28 µM)

Second part, led by results:

MIC (E. faecalis ATCC 29212; [8]) [µg/mL]	MIC [1] [µg/mL]	MIC (C. albicans ATCC 90028) [µg/mL]	MIC (S. aureus NCTC 10442; [9]) [µg/mL]	MIC (S. pneumoniae ATCC 49619; [10]) [µg/mL]	MIC (E. coli ATCC 25922 [2]; [11]) [µg/mL]	MIC (E. coli ATCC 25922 [3]) [µg/mL]	MIC (C. difficile 132 (RT027); Table 1) [µg/mL]	MIC [4] [µg/mL]	MIC (P. aeruginosa ATCC 27853) [µg/mL]	MIC (A. baumannii ATCC 19606) [µg/mL]	MIC (S. aureus ATCC 43300; Table S1, MRSA, CO-ADD) [µg/mL]	MIC (S. aureus ATCC 29213; [12]) [µg/mL]	MIC (C. difficile ATCC 700057; [13]) [µg/mL]	MIC C. neoformans var. grubii ATCC 208821 [4] [µg/mL]	Compound	HC50 (human erythrocytes; [6]) [µg/mL]	HC50 (human erythrocytes; [7]) [µg/mL]	CC50 [5] [µg/mL]	other results
32	> 32	16	64	16	128	> 32	32	16	> 32	> 32	32	32	64		CC(C)CCc1cnnn1-c1ccccc1OCC(=O)N[C@H](CCCCN)C(=O)N[C@H](CCCNC(=N)N)Cn1cc(Cc2ccccc2)nn1.Cl.Cl [Compound 39]	>32	> 32	> 32	
16	> 32	32	8	4	64	> 32	> 128	> 32	> 32	> 32	16	8	64		CC(C)CCc1cnnn1-c1c(OCC(=O)N[C@H](CCCNC(=N)N)Cn2cc(Cc3ccccc3)nn2)ccc2ccccc12.Cl [Compound 26]	>32	> 32	23.5	
		0.125 (≈ 0.408 µM)						0.25 (≈ 0.816 µM)							OC(Cn1cncn1)(Cn1cncn1)c1ccc(F)cc1F [flucona-zole, fluconazole, reference compound]				
